# B1: Wnt3A: Wnt3A used at 50 ng/ml on human PDL cells as comparator (protein, UniProt P56704 19-352, looked up)
# Protein Wnt-3a: SYPIWWSLAVGPQYSSLGSQPILCASIPGLVPKQLRFCRNYVEIMPSVAEGIKIGIQECQHQFRGRRWNCTTVHDSLAIFGPVLDKATRESAFVHAIASAGVAFAVTRSCAEGTAAICGCSSRHQGSPGKGWKWGGCSEDIEFGGMVSREFADARENRPDARSAMNRHNNEAGRQAIASHMHLKCKCHGLSGSCEVKTCWWSQPDFRAIGDFLKDKYDSASEMVVEKHRESRGWVETLRPRYTYFKVPTERDLVYYEASPNFCEPNPETGSFGTRDRTCNVSSHGIDGCDLLCCGRGHNARAERRREKCRCVFHWCCYVSCQECTRVYDVHTCK
# Legend:
# Human PDL cells [1] = experiment: von Kossa staining of human PDL cells treated with amelogenin, BIO or Wnt3A; type: cell-based; conditions: 2 weeks; amelogenin 5 μg/ml, BIO 1 μg/ml, Wnt3A 50 ng/ml
# Method: The human PDL cells were treated with amelogenin, BIO, or Wnt3A as indicated for 2 weeks.
# active beta catenin = active beta catenin western blotting, PDL cells; type: cell-based, human; conditions: PDL cells treated for 16 hours
# Method: (§1) PDL cells were treated with amelogenin for 16 hours. The active beta catenin level were determined by western blotting (see e.g., FIG. 18A). […] Wnt signaling reporter TOPFLASH was transfected into PDL cells and then the cells were treated with amelogenin. The luciferase activity was measured 48 hours after treatment (see e.g., FIG. 18C). The primary osteoblasts were isolated from Wnt signaling reporter mice, TOPGAL. 48 hours after treatment, the LacZ activity was measured (see e.g., FIG. 18D). Fibrin gel containing 50 μg/ml was implanted subcutaneously into the TOPGAL mice. 1 week post-implantation, the gel was harvested. LacZ staining was performed. […] Recombinant amelogenin is 6×His tagged. The distribution of amelogenin is shown overlapped with the beta catenin signaling as indicated by the LacZ staining (see e.g., FIG. 18F).
# PDL cells [2] = experiment: cell count of PDL cells; type: cell-based, human; conditions: counted at 0, 2 and 4 days
# Method: PDL cells and dental pulp cells (DPSC) were seeded in 12 well plate with the cells number indicated. The cell treated with amelogenin and cell number were counted at 0, 2, and 4 days (see e.g., FIG. 9A-B).
# beta catenin [3] = experiment: beta catenin translocation by immunofluorescence staining in dental pulp cells; type: cell-based, human; conditions: dental pulp cells treated with recombinant amelogenin overnight
# Method: (§2) The dental pulp cells were treated with recombinant amelogenin overnight. The translocation of beta catenin was determined by immunofluorescence staining (see e.g., FIG. 8A-F). Briefly, the cells were fixed with formalin for 5 min and treated with PBS with 0.1% triton for 5 min. The cells were then incubated with anti-beta catenin antibody overnight, after washing with PBS with 0.5% Tween-20, then incubated with secondary antibody labeled with fluorescence dye. […] The PDL cells treated with amelogenin were lysed with PBS lysis buffer containing 1% NP-40 and protease inhibitor, phosphatase inhibitor cocktails. The non-phosphorylated beta-catenin levels were determined by western blotting using anti-active beta catenin antibody (anti-ABC, millipore) (see e.g., FIG. 8G).
# [4] = test system: Mesenchymal stem cell C3H10t1/2 cells; experiment: RT-PCR marker expression in C3H10t1/2 cells in osteogenic medium; type: cell-based; conditions: C3H10t1/2, osteogenic medium
# From the text: (§3) At 3 weeks, amelogenin-treated cells were positive for both ALP and Van Kossa (see e.g., FIG. 15A-B). […] However, the cells tested negative for DSPP.
# PDL cells [5] = experiment: differentiation markers by Real Time PCR in PDL cells in osteogenic media; type: cell-based, human; conditions: chemically-defined osteogenic media
# Method: (§4) Human PDL cells were seeded in the 6 well plate and cultured in presence of 50 μg/ml ascorbic acid. The cells were treated with amelogenin. […] The total RNA was extracted and the expression of type I collagen was determined by Real Time PCR (see e.g., FIG. 17B). […] PDL cells were treated with amelogenin in the chemically-defined osteogenic media (see FIG. 17C).
# [6] = test system: Mesenchymal stem cell C3H10t1/2 cells; experiment: ALP and Van Kossa staining of C3H10t1/2 cells in osteogenic medium; type: cell-based; conditions: C3H10t1/2, osteogenic medium
# Method: Mesenchymal stem cell C3H10t1/2 cells were cultured in osteogenic medium for 2 weeks (see e.g., FIG. 14A).
# as §3
# [7] = test system: Wnt signaling reporter TOPFLASH; experiment: Wnt signaling reporter TOPFLASH luciferase activity in PDL cells; type: cell-based, human; conditions: 48 hours after treatment
# Method: as §1
# DSCs = experiment: cell proliferation by cell number count; type: cell-based; conditions: 3000 cells seeded, counted every 2 days
# Method: 3000 cells were seeded in the 12 well plate and the cell number was counted every 2 days (see e.g., FIG. 28A-B).
# [8] = test system: dental pulp stem cells or periodontal ligament stem cells; experiment: osteogenic and odontogenic differentiation of dental pulp and periodontal ligament stem cells; type: cell-based, human; conditions: culture with amelogenin (e.g., recombinant)
# Method: Exfoliating deciduous incisors and permanent third molars of multiple donors were collected. Dental pulp (DP) and periodontal ligament (PDL) stem cells were isolated and enzyme-digested per known methods (Yang et al., 2010, Clones of ectopic stem cells in the regeneration of muscle defects in vivo. PloS One. 2010 Oct. 20; 5 (10)). Mononucleated and adherent cells were cultured in DMEM-LG medium containing 10% FBS and 1% antibiotics in 10 cm cell culture dishes. These isolated cells contain single clones of multipotent stem cells that readily express sternness markers such as Stro-1, Oct4, Nanog, and CD146. DSCs and PDL cells were expanded and subjected to osteogenic and odontogenic differentiation. Briefly, DP and PDL stem cells were cultured in DMEM-LG medium containing 10% FBS, 50 μg/ml ascorbic acid and 1 mM 2-glycerophosphate in the presence or absence of recombinant amelogenin. The osteoaenic and odontoaenic differentiation was determined by the expression of RUNX2, dentin sialophosphoprotein (DSPP) and Dentin Matrix Protein 1 (DMP-1) by Real Time PCR, as well as Von Kossa and alkaline phosphatase staining. The level of active […] was measured by immune-fluorescence staining and western blotting.
# [9] = test system: Dental pulp stem cells (DPSCs); experiment: marker gene expression by RT-PCR in dental pulp stem cells in osteogenic medium; type: cell-based, human; conditions: 3 weeks
# Method: Dental pulp stem cells (DPSCs) were cultured in osteogenic medium for 3 weeks (see e.g., FIG. 13A-B). The osteogenic differentiation was determined by ALP and Van Kossa staining (see e.g., FIG. 13B). The expression of marker genes, RunX2 and DSPP, were determined by RT-PCR (see e.g., FIG. 13C).
# PDL cells [10] = experiment: Alkaline phosphatase and von Kossa staining of PDL cells in osteogenic media; type: cell-based, human; conditions: chemically-defined osteogenic media
# Method: as §4
# beta catenin signaling = experiment: fibrin gel implanted subcutaneously into TOPGAL mice, LacZ staining; type: in vivo; conditions: fibrin gel containing 50 μg/ml, subcutaneous, 1 week post-implantation
# Method: as §1
# dental pulp cells = experiment: DSP immunostaining of dental pulp cells; type: cell-based, human; conditions: amelogenin group
# From the text: Immunostaining verified DSP-positive cells in the amelogenin group (see e.g., FIG. 27A-B″).
# beta catenin [11] = experiment: beta catenin translocation by immunofluorescence staining in PDL cells; type: cell-based, human
# Method: The PDL cells were treated with recombinant amelogenin overnight. The translocation of beta catenin was determined by immunofluorescence staining (see e.g., FIG. 7A-F). Briefly, the cells were fixed with formalin for 5 min and treated with PBS with 0.1% triton for 5 min. The cells were then incubated with anti-beta catenin antibody overnight, after washing with PBS with 0.5% Tween-20, then incubated with secondary antibody labeled with fluorescence dye. […] Meanwhile, the PDL cells treated with amelogenin were lysed with PBS lysis buffer containing 1% NP-40 and protease inhibitor, phosphotase inhibitor cocktails. The non-phosphorylated beta catenin levels were determined by western blotting using anti-active beta catenin antibody (anti-ABC, millipore) (see e.g., FIG. 7G).
# PDL cells were treated with amelogenin for 16 hours. The active beta catenin level were determined by western blotting (see e.g., FIG. 18A). […] Wnt signaling reporter TOPFLASH was transfected into PDL cells and then the cells were treated with amelogenin. The luciferase activity was measured 48 hours after treatment (see e.g., FIG. 18C). The primary osteoblasts were isolated from Wnt signaling reporter mice, TOPGAL. 48 hours after treatment, the LacZ activity was measured (see e.g., FIG. 18D). Fibrin gel containing 50 μg/ml was implanted subcutaneously into the TOPGAL mice. 1 week post-implantation, the gel was harvested. […]
# Human PDL cells [12] = experiment: Von Kossa staining of human PDL cells transfected with ICAT plasmid; type: cell-based; conditions: osteogenic media, 2 weeks
# Method: Human PDL cells were transfected with the Wnt signaling inhibitor, ICAT plasmid. The cells were treated with amelogenin in the osteogenic media for 2 weeks.
# Human PDL cells [13] = experiment: type I collagen expression by Real Time PCR in human PDL cells; type: cell-based; conditions: 2 weeks post-treatment
# Method: as §4
# [14] = test system: Wnt signaling reporter (TOPGAL osteoblasts); experiment: LacZ activity in primary osteoblasts from TOPGAL mice; type: cell-based; conditions: 48 hours after treatment
# Method: as §1
# Human PDL cells [15] = experiment: trichrome staining of collagen matrix in human PDL cells; type: cell-based; conditions: 50 μg/ml ascorbic acid, 2 weeks post-treatment
# Method: as §4
# [16] = test system: non-phosphorylated beta-catenin; experiment: non-phosphorylated beta-catenin western blotting, dental pulp cells; type: cell-based, human; conditions: anti-active beta catenin antibody
# Method: as §2
molecule,measurement,setting,value
"O=C1Nc2cc(Br)ccc2/C1=C1/Nc2ccccc2/C1=N\O [BIO, reference compound]",cell differentiation (von Kossa staining),Human PDL cells [1],cell differentiation
amelogenin,active beta catenin level,active beta catenin,exhibited active beta-catenin levels
same,cell counts,PDL cells [2],temporal increase in cell counts
same,translocation of beta catenin,beta catenin [3],beta catenin translocalized into nucleus
same,DSPP,[4]; 3 weeks,negative
same,RunX2 expression,[4]; RT-PCR,induced
same,differentiation markers (Real Time PCR),PDL cells [5],upregulation
same,cell differentiation (von Kossa staining),Human PDL cells [1],cell differentiation
same,ALP staining,[6]; 2 weeks,positive
same,Van Kossa staining,[6]; 2 weeks,negative
same,ALP staining,[6]; 3 weeks,positive
same,Van Kossa staining,[6]; 3 weeks,positive
same,Wnt activity (TOPFLASH luciferase activity),[7],increased
same,cell proliferation (cell number),DSCs,more rapid proliferation
same,ALP and Van Kossa staining,[8],increased
same,DSPP expression,[8],increased
same,DSPP expression,[9],DSPP-positive
same,cell differentiation (Alkaline phosphatase and von Kossa staining),PDL cells [10],cell differentiation was confirmed
same,LacZ staining around implanted gel,beta catenin signaling,LacZ positive cells were found in the surrounding area of the gel
same,DSP immunostaining,dental pulp cells,DSP-positive
same,nuclear translocalization of beta catenin,beta catenin [11]; PDL cells treated for 16 hours,nuclear translocalization
same,translocation of beta catenin,beta catenin [11]; PDL cells treated with recombinant amelogenin overnight,beta catenin translocalized into nucleus
same,cell differentiation (Von Kossa staining),Human PDL cells [12],demonstrated cell differentiation
same,type I collagen mRNA,Human PDL cells [13],upregulate
same,LacZ activity,[14],increased
same,collagen matrix synthesis (trichrome staining),Human PDL cells [15],promote the PDL cells matrix synthesis
same,non-phosphorylated beta-catenin levels,[16],increased
B1,cell differentiation (von Kossa staining),Human PDL cells [1],cell differentiation
